For orientation: Km means the substrate concentration at which the rate is half of its maximum.

This assay concerns T1, AuAHLA.
T1 construct: gene ahla; full ORF of 808 residues expressed untagged in Rhodococcus sp; T104, secreted; signal peptide of 34-35 aa removed
Put plainly: hydrolysis, o-phthalaldehyde fluorometric assay of released primary amine. Format: biochemical, Actinoplanes utahensis. As to conditions: 0.2 M potassium phosphate pH 8.0, 45 °C. An excerpt:
hydrolysis, o-phthalaldehyde fluorometric assay of released primary amine on AuAHLA

As to `CCCCCC(=O)CC(=O)N[C@H]1CCOC1=O` [3-oxo-C8-HSL, N-(3-oxooctanoyl)-L-homoserine lactone], the Michaelis constant (Km) (20% (v/v) DMSO) is 1040 ± 420 µM.

As to `CCCCCCCC(=O)CC(=O)N[C@H]1CCOC1=O` [3-oxo-C10-HSL, N-(3-oxodecanoyl)-L-homoserine lactone], for the setting “20% (v/v) DMSO”, the Km was found to be 238 ± 86 µM.

On to `CCCCCCCCCC(=O)CC(=O)N[C@H]1CCOC1=O` [3-oxo-C12-HSL, N-(3-oxododecanoyl)-L-homoserine lactone], for which the Km (20% (v/v) DMSO) was 92 ± 21 µM.

For the molecule `CCCCCC(=O)N[C@H]1CCOC1=O` [C6-HSL, N-hexanoyl-L-homoserine lactone], the Michaelis constant (Km) (20% (v/v) DMSO) amounted to 2250 ± 500 µM.

With `CCCCCCCC(=O)N[C@H]1CCOC1=O` [C8-HSL, N-octanoyl-L-homoserine lactone], under “20% (v/v) DMSO”, the Km is 860 ± 150 µM.

With `CCCCCCCCCC(=O)N[C@H]1CCOC1=O` [C10-HSL, N-decanoyl-L-homoserine lactone], the Km (20% (v/v) DMSO) turned out to be 84 ± 21 µM.

Consider `CCCCCCCCCCCC(=O)N[C@H]1CCOC1=O` [C12-HSL, N-dodecanoyl-L-homoserine lactone], for which the Michaelis-Menten constant (Km) (20% (v/v) DMSO) came to 8 ± 2 µM.

Turning to `CC1(C)S[C@@H]2[C@H](NC(=O)Cc3ccccc3)C(=O)N2[C@H]1C(=O)O` [Penicillin G], the Km was determined as 1210 ± 300 µM.

On to `CCCCCCCC(=O)N[C@@H]1C(=O)N2[C@@H]1SC(C)(C)[C@@H]2C(=O)O` [Penicillin K], for which the Km turned out to be 675 ± 190 µM.

`CC1(C)S[C@@H]2[C@H](NC(=O)COc3ccccc3)C(=O)N2[C@H]1C(=O)O` [Penicillin V]: the Km came to 472 ± 50 µM.

On to `CCCCCC(=O)N[C@@H]1C(=O)N2[C@@H]1SC(C)(C)[C@@H]2C(=O)O` [Penicillin dihidroF], for which the Km worked out at 199 ± 20 µM.

Values taken from publication PMC8388760, “Novel Bifunctional Acylase from Actinoplanes utahensis: A Versatile Enzyme to Synthesize Antimicrobial Compounds and Use in Quorum Quenching Processes” (Antibiotics, 2021).
